From PubChem BioAssay (NCI)
Several values for one entry are separate records, joined by “and”; a condition that tells them apart may be missing. Equal values may be shown once.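 Cells were grown in 96-well plates and exposed to each compound for 48 hours at five concentrations; endpoints were interpolated linearly between bracketing concentrations, or set to the highest concentration if not reached. GI50 is the concentration that inhibits growth by half. TGI: total growth inhibition.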

Experiments:
Assay in all cases: NCI tumour cell line growth inhibition, 48 h
DLD-1 colon = tested on: DLD-1 colon
HOP-18 NSCLC = tested on: HOP-18 NSCLC
KM20L2 colon = tested on: KM20L2 colon
M19-MEL melanoma = tested on: M19-MEL melanoma
MDA-N = tested on: MDA-N
P388/ADR leukemia = tested on: P388/ADR leukemia
SN12K1 renal = tested on: SN12K1 renal
SNB-78 CNS = tested on: SNB-78 CNS
XF 498 CNS = tested on: XF 498 CNS
LXFL 529 NSCLC = tested on: LXFL 529 NSCLC
RXF-631 renal = tested on: RXF-631 renal

Row | SMILES | TGI (DLD-1 colon) | TGI (HOP-18 NSCLC) | TGI (KM20L2 colon) | TGI (M19-MEL melanoma) | TGI (MDA-N) | TGI (SNB-78 CNS) | TGI (XF 498 CNS) | TGI (LXFL 529 NSCLC) | other results
1 | Nc1nc(F)nc2c1ncn2C1OC(COP(=O)(O)O)C(O)C1O (configuration not stated) | > 1080 µM | 552 µM | > 1250 µM | 877 µM | 723 µM | 636 µM | 152 µM | – | TGI (P388/ADR leukemia): 160 µM; TGI (SN12K1 renal): 277 µM
2 | CC(=O)NC(Cc1c[nH]c2ccccc12)C(=O)O (configuration not stated) | – | – | – | – | > 100 µM | – | – | – | –
3 | OCC1OC(O)C(N=Cc2ccc3c(c2)OCO3)C(O)C1O (configuration not stated) | – | – | – | – | > 100 µM | – | – | – | –
4 | C/C(=N\[N+](C)(C)C)C(c1ccccc1)C1(c2ccccc2)C(c2ccccc2)=C1c1ccccc1 (configuration not stated) | > 100 µM | – | > 100 µM | > 100 µM | – | > 100 µM | 50.4 µM | – | –
5 | O=C1CC(c2ccccc2)NCN1 (configuration not stated) | > 100 µM | > 100 µM | > 100 µM | > 100 µM | – | > 100 µM | – | > 100 µM | –
6 | COc1ccc(/C(Cl)=C(\C=O)c2cc(OC)c(OC)c(OC)c2)cc1OC | – | 58.4 µM | > 100 µM | > 100 µM | > 100 µM | 88.1 µM | – | > 100 µM | TGI (RXF-631 renal): 65.4 µM
7 | CCOC(=O)C(=O)Nc1ccc([N+](=O)[O-])cc1C#N | > 100 µM | > 100 µM | – | > 100 µM | – | – | > 100 µM | > 100 µM | TGI (RXF-631 renal): > 100 µM
8 | Nc1ccn(C2OC(COP(=O)(O)O)C(O)C2O)c(=O)n1 (configuration not stated) | – | – | – | – | > 100 µM | – | – | – | –
9 | O=C(CCc1ccc(O)c(O)c1)c1ccc(O)c(O)c1O | – | – | – | – | 32.2 µM | – | – | – | –
10 | COC1=CC(C)C2C[C@H]3O[C@H](O)C[C@H]4C(C)C(=O)C(O)C([C@@]2(C)C1=O)[C@@]34C (some centres not stated) | > 100 µM | > 100 µM | – | > 100 µM | – | > 100 µM | – | > 100 µM | –
11 | CCC(=O)Nc1ccc2c(c1)CN1C(=O)c3ccccc3C1=N2 | – | – | – | – | > 100 µM | – | – | – | GI50 (MDA-N): > 100 µM
12 | NC1=NN(c2ccccc2)C(=O)C1C(=O)C(=O)Nc1cccc(C(F)(F)F)c1 (configuration not stated) | > 100 µM | > 100 µM | > 100 µM | > 100 µM | – | > 100 µM | > 100 µM | > 100 µM | TGI (RXF-631 renal): > 100 µM
13 | CCC[CH2][Sn]([CH2]CCC)([O]C(=O)c1cccc(F)c1F)[O][Sn]([CH2]CCC)([CH2]CCC)[O]C(=O)c1cccc(F)c1F | 0.744 µM | 1.51 µM | 2.1 µM | 0.689 µM | 1.16 µM | 1.51 µM | 0.314 µM | 0.157 µM | GI50 (DLD-1 colon): 0.182 µM; GI50 (HOP-18 NSCLC): 0.551 µM; GI50 (KM20L2 colon): 0.727 µM; GI50 (LXFL 529 NSCLC): 0.0222 µM; GI50 (M19-MEL melanoma): 0.141 µM; GI50 (MDA-N): 0.223 µM; GI50 (RXF-631 renal): 0.0409 µM; TGI (RXF-631 renal): 0.398 µM; GI50 (SNB-78 CNS): 0.139 µM; GI50 (XF 498 CNS): 0.173 µM
14 | CC(=O)[CH-]C(C)=O.CC(=O)[CH-]C(C)=O.CC(=O)[CH-]C(C)=O.[Cl-].[Hf+4] | – | – | > 100 µM | – | – | – | – | – | GI50 (KM20L2 colon): > 100 µM
15 | O=C1NC(=O)[C@H]2C3C=CC([C@@H]12)[C@@H]1C(=O)NC(=O)[C@H]31 | – | – | – | – | > 100 µM | – | – | – | –
16 | O[C@H]1[C@H]2[C@H](O)CCCN2C[C@H]1O | > 100 µM | > 100 µM | > 100 µM | > 100 µM | – | > 100 µM | > 100 µM | > 100 µM | –
17 | CC1=Cc2cc3[n-]c(cc4nc(cc5[n-]c(cc1n2)c(C)c5CCC(=O)O)C(CCC(=O)O)=C4C)cc3C.[Cu+2] | > 93 µM | > 100 µM | > 100 µM | > 100 µM | > 100 µM | > 1 µM and 8.92 µM | > 1 µM and 26.5 µM | > 100 µM | GI50 (DLD-1 colon): > 42.6 µM; GI50 (HOP-18 NSCLC): > 100 µM; GI50 (KM20L2 colon): > 100 µM; GI50 (LXFL 529 NSCLC): > 1 µM and 12.4 µM; GI50 (M19-MEL melanoma): > 100 µM; GI50 (MDA-N): 62.4 µM; GI50 (SNB-78 CNS): > 1 µM and 2.07 µM; GI50 (XF 498 CNS): > 1 µM and 10.2 µM

Row | SMILES | TGI (DLD-1 colon) | TGI (HOP-18 NSCLC) | TGI (KM20L2 colon) | TGI (M19-MEL melanoma) | TGI (MDA-N) | TGI (SNB-78 CNS) | TGI (XF 498 CNS) | TGI (LXFL 529 NSCLC) | other results
18 | CC1(C)CC2=NOS3=C2C(=NO3)C1c1ccccn1 (configuration not stated) | – | – | – | – | 92.9 µM | – | – | – | –
19 | C/C=C/CP(=O)(c1ccccc1)c1ccccc1 | > 100 µM | > 100 µM | > 100 µM | > 100 µM | – | > 100 µM | > 100 µM | > 100 µM | –
20 | NC(=S)N/N=C1\C(=O)N(c2cccc([N+](=O)[O-])c2)C(=O)C1C(=O)Nc1cccc([N+](=O)[O-])c1 (configuration not stated) | > 100 µM | > 100 µM | > 100 µM | > 100 µM | – | > 100 µM | – | > 100 µM | –
21 | O=C1C=CC(=O)N1c1ccc2c(c1)Cc1cc(NC(=O)C(F)(F)F)ccc1-2 | – | – | – | – | 32.5 µM | – | – | – | –
22 | O=C(Nc1ccc(N=Nc2ccccc2)cc1)Sc1ccccc1C(=O)O | – | – | > 100 µM | – | – | > 100 µM | – | > 100 µM | –
23 | Cc1cc(-c2cc(C)c(O)c(C(C)(C)C)c2)cc(C(C)(C)C)c1O | – | – | – | – | 21.2 µM and 27.9 µM | – | – | – | –
24 | CC(=O)Oc1cc2c(=O)oc3c(OC(C)=O)c(OC(C)=O)c(OC(C)=O)c4c(=O)oc(c1OC(C)=O)c2c34 | > 100 µM | > 100 µM | > 100 µM | 40.6 µM | – | > 100 µM | 76.5 µM | > 100 µM | TGI (RXF-631 renal): 78.5 µM
25 | N#CC(c1ccc(Cl)cc1)c1cccc(Cl)n1 (configuration not stated) | > 100 µM | – | > 100 µM | > 100 µM | – | > 100 µM | 78.7 µM | > 100 µM | –
26 | N#Cc1c(C(N)=O)ncn1Cc1ccccc1 | > 100 µM | > 100 µM | > 100 µM | > 100 µM | – | > 100 µM | > 100 µM | > 100 µM | TGI (RXF-631 renal): > 100 µM
27 | O=C(CC1(O)C(=O)Nc2ccccc21)c1ccc(O)cc1O (configuration not stated) | > 100 µM | – | > 100 µM | > 100 µM | – | > 100 µM | > 100 µM | > 100 µM | –
28 | Cc1ccc(NC(=O)/C(=N/NC(=O)CC#N)C2C(=O)N(c3ccccc3)N=C2N)cc1C (configuration not stated) | > 100 µM | > 100 µM | > 100 µM | > 100 µM | – | > 100 µM | > 100 µM | > 100 µM | –
29 | C[C@]12CC[C@@H]3c4ccc(OCC(=O)O)cc4CC[C@H]3[C@@H]1CCC2=O | – | – | – | – | > 100 µM | – | – | – | –
30 | Cc1ccc(C2=NN(C)COC2C(F)(F)F)cc1 (configuration not stated) | > 100 µM | > 100 µM | > 100 µM | > 100 µM | – | > 100 µM | – | > 100 µM | TGI (RXF-631 renal): > 100 µM
31 | COc1ccc(C2c3cc4c(cc3OC(O)(CO)C2C(=O)O)OCO4)c(OC)c1OC (configuration not stated) (tested in a mixture with another compound) | > 100 µM | > 100 µM | > 100 µM | > 100 µM | – | > 100 µM | > 100 µM | – | –
32 | CO/C=C/c1cc2c(cc1C(OC)OC)OCO2 | > 100 µM | – | > 100 µM | > 100 µM | – | > 100 µM | 84.8 µM | – | TGI (RXF-631 renal): > 100 µM
33 | CCC12CC[C@H](C#N)N3CCc4c(n(c5ccccc45)C(=O)C1)C32 (some centres not stated) | 43.8 µM | – | 35 µM | 73.2 µM | – | 51.9 µM | 36.5 µM | 33.7 µM | TGI (RXF-631 renal): 45.1 µM
34 | O=C(O/N=C1/CCC/C1=C\c1ccccc1)c1ccccc1 | > 100 µM | > 100 µM | > 100 µM | – | – | > 100 µM | – | 89.9 µM | –
